In one assay the target is T1, 5-HT2B receptor (Homo sapiens, UniProt P41595).
T1 construct: expressed in transfected cells; host or cells: CHO-K1
As to the kind of experiment: Serotonin receptor binding, [3H] LSD, CHO-K1 membranes. The method, then: (§1) Aliquots of suspended membranes of human recombinant CHO-K1 cells stably expressing human 5-HT1A, 5-HT2A, 5-HT1B, 5-HT2B, 5-HT2C, 5-HT4, 5-HT6 or 5-HT7 receptors were pre-incubated at 25° C. with 1.5 nM [^3H] 8-OH-DPAT (5-HT1A), 1.5 nM [^3H] Ketanserin (5-HT2A), 0.01 nM [^125I] Cyanopindolol (5-HT1B), 1 nM [^3H] Mesulergine (5-HT2c), 0.7 nM [^3H] GR-113808 (5-HT4) or at 37° C. 1.2 nM [^3H] LSD (5-HT2B, 5-HT6 and 5-HT7) in buffer (50 mM Tris-HCl, pH 7.7) alone or in the presence of 1 nM, 10 nM, 0.1 μM, 1 μM, and 10 μM of N-[2-(5-methoxy-indol-3-yl)-ethyl]-commenamide, N-[2-(5-methoxy-indol-3-yl)-ethyl]-coumalylamide, N-[2-(5-methoxy-indol-3-yl)-ethyl]-comanilamide, N-[2-(5-methoxy-indol-3-yl)-ethyl]-2-methoxy-commenamide or N-[2-(5-methoxy-indol-3-yl)-ethyl]-chelidonamide for 60 minutes. The binding reaction was terminated and washed with 4 ml ice-cold 50 mM Tris-HCl buffer by vacuum filtration. Membranes were then collected, and the filters containing the bound ligands were assayed for the amount of radioactivity in a b-counter. Non-specific binding was evaluated using a reaction with 10 μM metergoline (5-HT1A), 1 μM mianserin (5-HT2A and 5-HT2c) or 10 μM serotonin (5-HT1B, 5-HT2B, 5-HT4, 5-HT6 and 5-HT7).

In a further assay the target is T2, 5-HT1B receptor (Homo sapiens, UniProt P28222).
T2 construct: expressed in transfected cells; host or cells: CHO-K1
T2 sequence (P28222 whole entry): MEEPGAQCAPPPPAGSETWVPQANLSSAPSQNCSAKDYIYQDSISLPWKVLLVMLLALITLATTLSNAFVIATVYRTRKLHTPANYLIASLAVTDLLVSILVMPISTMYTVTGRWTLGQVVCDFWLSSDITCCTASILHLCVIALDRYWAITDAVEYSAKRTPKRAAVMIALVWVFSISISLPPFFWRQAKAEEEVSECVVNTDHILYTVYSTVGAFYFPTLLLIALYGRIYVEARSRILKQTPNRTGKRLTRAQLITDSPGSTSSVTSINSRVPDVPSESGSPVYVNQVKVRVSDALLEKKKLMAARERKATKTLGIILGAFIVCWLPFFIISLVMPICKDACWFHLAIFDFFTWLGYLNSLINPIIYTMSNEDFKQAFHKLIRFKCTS
Put plainly: Serotonin receptor binding, [125I] Cyanopindolol, CHO-K1 membranes. The method, then: as §1

The next assay deals with CD1 mice. As to the kind of experiment: Potentiation of hexobarbital-Na sleep time in mice. The assay is classed as in vivo. The conditions noted are these: for effect on hexobarbital-Na narcosis time: 100 mg/kg i.p.; for Changes (%) vs. Vehicle (sleep time) / Mean Sleep Time-Treatment (min) ± SE: 100 mg/kg i.p. 15 min before 50 mg/kg hexobarbital-Na i.v.; for Mean Sleep Time-Treatment (min) ± SE: loss to recovery of righting reflex. The method, then:
CD1 mice were divided randomly into groups of seven mice each. The mice in each group were administered intraperitoneally a dose of one of the following: 100 mg/kg of one of test substances O-[2-(5-methoxy-indol-3-yl)-ethyl]-comenic ester, N-[2-(5-methoxyindol-3-yl)-ethyl]-commenamide, N-[2-(5-methoxy-indol-3-yl)-ethyl]-coumalylamide, N-[2-(5-methoxy-indol-3-yl)-ethyl]-chelidonamide, N-[2-(5-methoxy-indol-3-yl)-ethyl]-comanilamide or N-[2-(5-methoxy-indol-3-yl)-ethyl]-2-methoxy-commenamide in saline (0.1 ml/10 g body weight), or saline alone. Fifteen minutes later the mice received a dose of 50 mg/kg of hexobarbital-Na intravenously. Sleep time was measured in each animal as the time from loss to recovery of the righting reflex.

The next assay concerns 3T3-L1 adipocytes. Put plainly: 2-[3H]-deoxy-d-glucose uptake in FFA-treated 3T3-L1 adipocyte model. The assay is classed as cell-based. The conditions noted are these: Insulin 20 nM + FFA 300 μM (3 h) + substance 10 nM. The method, then: Adipocytes were glucose-starved for 1 h in Hepes-salt buffer containing 2% FFA-free BSA. FFA (free fatty acids) were then added to the cells at the indicated concentrations (300 μM) for the indicated times (3 h). 10 min before the end of the FFA treatment, the cells were stimulated with insulin (20 nM)/melatonin (10 nM)/test compounds (10 nM) at 37° C. 2-[^3H]-deoxy-d-glucose at 1 μCi/mL and 0.1 mM unlabeled 2-deoxyglucose in KRP-HEPES buffer was added and cells were incubated for 10 min at room temperature. Non-specific glucose uptake was measured by parallel incubations in the presence of 10 μM cytochalasin B, which blocks transporter-mediated glucose uptake, and was subtracted from total uptake in each assay. Cells were then washed three times with ice-cold phosphate buffered saline (PBS) and solubilized in 1M NaOH for 20 minutes. The sample was then counted using a scintillation counter. 2-[^3H]-deoxy-d-glucose uptake was assayed in triplicates for each condition in at least 3 independent experiments. 2-[^3H]-deoxy-d-glucose uptake (counts per minute-cpm) are presented as mean+SE of triplicates in a representative experiment or results of three independent experiments. ANOVA test was used with significance of P<0.05 (Table 7).

In another assay the target is T3, MT-3 receptor (Mesocricetus auratus, UniProt A0ABM2YAB8).
T3 construct: from tissue; host or cells: hamster brain membranes
T3 sequence (A0ABM2YAB8 1-231): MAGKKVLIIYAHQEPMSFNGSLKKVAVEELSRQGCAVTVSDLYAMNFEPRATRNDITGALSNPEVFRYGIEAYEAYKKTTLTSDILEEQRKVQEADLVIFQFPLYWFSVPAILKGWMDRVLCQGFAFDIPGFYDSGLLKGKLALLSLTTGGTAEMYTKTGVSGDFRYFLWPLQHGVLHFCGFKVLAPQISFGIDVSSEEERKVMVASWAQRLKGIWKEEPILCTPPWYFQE
Put plainly: 125I-melatonin binding in hamster brain membranes, MT-3. The conditions noted are these: for inhibition at 10 µM: read-out: MT-3 receptor binding % inhibition by 10 μM. The method, then:
Aliquots of suspended membranes of human recombinant CHP-K1 (Chinese hamster ovary) cells stably expressing human melatonin-1 or melatonin-2 (MT-1 or MT-2) receptors or of hamster brain (MT-3) were incubated at 25° C. with 0.05 nM ^125I-melatonin in buffer (25 mM HEPES, pH 7.4, 5 mM MgCl2, 1 mM CaCl2, 0.5% BSA) or with 0.1 nM for MT-3 alone or in the presence of 1 nM, 10 nM, 0.1 μM, 1 μM and 10 μM of test substances N-[2-(5-methoxy-indol-3-yl)-ethyl]-commenamide, N-[2-(5-methoxy-indol-3-yl)-ethyl]-comanilamide, N-[2-(5-methoxy-indol-3-yl)-ethyl]-coumalylamide, N-[2-(5-methoxy-indol-3-yl)-ethyl]-2-methoxy-commenamide, N-[2-(5-methoxy-indol-3-yl)-ethyl]-chelidonamide, O-[2-(5-methoxy-indol-3-yl)-ethyl]-comenic ester, N-[2-(5-methoxy-indol-3-yl)-ethyl]-2-Pyrone-6-carboxamide and N-[2-(2-bromo-5-methoxy-indol-3-yl)-ethyl]-coumalylamide for 3 hours for MT-1, 4 hours for MT-2 and 30 min for MT-3. The binding reaction was terminated and the membranes were washed with 4 ml of ice-cold HEPES buffer by vacuum filtration. Membranes were then collected, and the filters containing the bound ^125I-melatonin were assayed for the amount of radioactivity in a […]. Non-specific binding was evaluated using a reaction with 1 μM 6-chloromelatonin (MT-1 and MT-2) or 30 μM melatonin (MT-3).

A further assay addresses T4, 5-HT7 receptor (Homo sapiens, UniProt P34969).
T4 construct: expressed in transfected cells; host or cells: CHO-K1
As to the kind of experiment: Serotonin receptor binding, [3H] LSD, CHO-K1 membranes. The method, then:
as §1

[1] abbreviates: 0.1 nM 125I-melatonin, 30 min, read-out: MT-3 receptor binding IC50.
Setting [2] is: 0.1 nM 125I-melatonin, 30 min, read-out: MT-3 receptor binding KI.

Like-named read-outs stand apart in the source and are kept apart here.

T4 sequence (P34969 whole entry): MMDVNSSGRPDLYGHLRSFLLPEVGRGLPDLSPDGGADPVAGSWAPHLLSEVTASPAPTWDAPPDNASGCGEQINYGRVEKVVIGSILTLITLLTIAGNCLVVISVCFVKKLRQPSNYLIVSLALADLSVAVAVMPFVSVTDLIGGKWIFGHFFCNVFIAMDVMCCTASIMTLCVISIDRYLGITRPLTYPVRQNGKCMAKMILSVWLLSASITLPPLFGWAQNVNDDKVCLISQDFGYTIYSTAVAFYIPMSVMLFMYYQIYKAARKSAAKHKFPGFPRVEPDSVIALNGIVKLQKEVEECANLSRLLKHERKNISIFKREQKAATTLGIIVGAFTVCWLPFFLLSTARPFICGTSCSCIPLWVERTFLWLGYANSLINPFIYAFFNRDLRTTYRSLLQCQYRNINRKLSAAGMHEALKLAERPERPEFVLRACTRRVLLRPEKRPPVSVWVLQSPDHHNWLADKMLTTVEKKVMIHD
T1 sequence (P41595 whole entry): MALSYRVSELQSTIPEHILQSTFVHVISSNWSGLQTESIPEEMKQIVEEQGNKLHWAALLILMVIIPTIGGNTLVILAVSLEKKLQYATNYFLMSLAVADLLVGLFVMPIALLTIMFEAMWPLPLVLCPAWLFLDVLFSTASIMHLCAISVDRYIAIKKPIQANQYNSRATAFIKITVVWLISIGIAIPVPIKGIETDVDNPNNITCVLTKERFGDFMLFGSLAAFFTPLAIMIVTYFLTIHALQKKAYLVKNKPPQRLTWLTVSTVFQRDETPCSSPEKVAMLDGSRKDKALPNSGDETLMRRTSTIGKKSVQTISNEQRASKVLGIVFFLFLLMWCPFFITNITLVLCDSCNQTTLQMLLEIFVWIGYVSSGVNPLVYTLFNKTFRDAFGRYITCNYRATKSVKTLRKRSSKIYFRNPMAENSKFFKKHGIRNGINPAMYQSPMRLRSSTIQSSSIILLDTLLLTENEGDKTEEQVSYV

Consider `COc1ccc2[nH]cc(CCNC(=O)c3cc(=O)cc(C(=O)O)o3)c2c1` [N-[2-5-methoxy-indol-3-yl)-ethyl]-chelidonamide], for which, on 5-HT2B receptor (read-out: 5-HT2B IC50), the IC50 (as a rule, the point on the concentration scale where inhibition reaches its midpoint) came to 2.1 µM. Besides, the Ki – broadly, a dissociation constant, usually derived from enzyme kinetics or from competition with a known ligand – at 5-HT2B receptor (read-out: 5-HT2B KI) was 1.33 µM. The “affinity to 5-HT1B” value on 5-HT1B receptor was “moderate affinity”. Moreover, in the assay with CD1 mice, the “effect on hexobarbital-Na narcosis time” value is reported as “moderately increased the hexobarbital-Na narcosis time”, the “Changes (%) vs. Vehicle (sleep time)” value is “+54%” and the “Mean Sleep Time-Treatment (min) ± SE” value came out at 12.37 ± 1.85 min. Moreover, the “2-[3H]-deoxy-d-glucose uptake (cpm)” value in the assay on 3T3-L1 adipocytes came out at 1407 cpm. Also, at MT-3 receptor (setting [1]), the IC50 came out at 2.2 µM. For the same molecule, on MT-3 receptor (setting [2]), the inhibition constant (Ki) stood at 2.2 µM. For the same molecule, the inhibition (in general, the drop in the measured response relative to a control, in per cent) at 10 µM on MT-3 receptor (10 μM, 0.1 nM 125I-melatonin) was found to be 86%.

Turning to `COc1ccc2[nH]cc(CCNC(=O)c3cc(=O)c(OC)co3)c2c1` [N-[2-(5-methoxy-indol-3-yl)-ethyl]-2-methoxy-commenamide], on 5-HT2B receptor, the “affinity to 5-HT2B” value is given as “moderate affinity”. The IC50 at 5-HT2B receptor (read-out: 5-HT2B IC50) amounted to 1.76 µM; at 5-HT7 receptor (read-out: 5-HT7 IC50), 0.735 µM; at 5-HT1B receptor (read-out: 5-HT1B IC50), 5.44 µM; at MT-3 receptor (setting [1]), 0.23 µM. For the same molecule, the inhibition constant (Ki) at 5-HT2B receptor (read-out: 5-HT2B KI) was 1.12 µM; on 5-HT7 receptor (read-out: 5-HT7 KI) it was 0.42 µM; on 5-HT1B receptor (read-out: 5-HT1B KI), 5.16 µM; at MT-3 receptor (setting [2]), 0.22 µM. For the same molecule, the “affinity to 5-HT7” value on 5-HT7 receptor is given as “moderate affinity”. The “Changes (%) vs. Vehicle (sleep time)” value with CD1 mice is on record as −21%. Also, the “Mean Sleep Time-Treatment (min) ± SE” value in the assay with CD1 mice worked out at 7.70 ± 1.24 min. In addition, in the assay on 3T3-L1 adipocytes, the “2-[3H]-deoxy-d-glucose uptake (cpm)” value amounted to 1522 cpm. For the same molecule, the inhibition at 10 µM at MT-3 receptor (10 μM, 0.1 nM 125I-melatonin) worked out at 99%.

As for `COc1ccc2[nH]cc(CCNC(=O)c3cc(=O)cco3)c2c1` [N-[2-(5-methoxy-indol-3-yl)-ethyl]-comanilamide], the figures for the IC50 at 5-HT2B receptor (read-out: 5-HT2B IC50), on 5-HT1B receptor (read-out: 5-HT1B IC50) and on MT-3 receptor (setting [1]) were 6.78 µM, 2.14 µM and 0.31 µM, respectively. In addition, the Ki stood at 4.32 µM at 5-HT2B receptor (read-out: 5-HT2B KI), 2.03 µM on 5-HT1B receptor (read-out: 5-HT1B KI) and 0.3 µM at MT-3 receptor (setting [2]). Moreover, the “affinity to 5-HT1B” value at 5-HT1B receptor is “moderate affinity”. In the assay with CD1 mice, the “effect on hexobarbital-Na narcosis time” value is “moderately increased the hexobarbital-Na narcosis time”. Moreover, the “Changes (%) vs. Vehicle (sleep time)” value in the assay with CD1 mice is “+49%”. Further, in the assay with CD1 mice, the “Mean Sleep Time-Treatment (min) ± SE” value is listed as 17.52 ± 3.07 min. For the same molecule, the “2-[3H]-deoxy-d-glucose uptake (cpm)” value with 3T3-L1 adipocytes is listed as 1492 cpm. In addition, the “affinity to MT-3” value at MT-3 receptor was “high affinity”. At MT-3 receptor (10 μM, 0.1 nM 125I-melatonin), the inhibition at 10 µM worked out at 100%.

Take `COc1ccc2[nH]cc(CCNC(=O)c3cc(=O)c(O)co3)c2c1` [N-[2-(5-methoxy-indol-3-yl)-ethyl]-commenamide]: on 5-HT2B receptor, the half-maximal inhibitory concentration (IC50) was 2.25 µM; the affinity, expressed as Ki, was 1.43 µM; the “affinity to 5-HT2B” value is reported as “moderate affinity”. Besides, on 5-HT7 receptor, the IC50 is 0.23 µM; the affinity, expressed as Ki, was 0.132 µM; the “affinity to 5-HT7” value is on record as “moderate affinity”. At 5-HT1B receptor, this molecule registered a 50% inhibitory concentration (IC50) of 3.91 µM and an inhibition constant (Ki) of 3.71 µM. For the same molecule, in the assay on CD1 mice, the “effect on hexobarbital-Na narcosis time” value is given as “significantly increased the hexobarbital-Na narcosis time”, the “Changes (%) vs. Vehicle (sleep time)” value is “+88%” and the “Mean Sleep Time-Treatment (min) ± SE” value worked out at 17.13 ± 8.06 min. In the assay on 3T3-L1 adipocytes, the “2-[3H]-deoxy-d-glucose uptake (cpm)” value is given as 1530 cpm. In addition, at MT-3 receptor, the IC50 came out at 0.8 µM, the Ki was 0.78 µM, the “affinity to MT-3” value is given as “high affinity” and the inhibition at 10 µM came to 98%.

In the case of `COc1ccc2[nH]cc(CCNC(=O)c3ccc(=O)oc3)c2c1` [N-[2-(5-methoxy-indol-3-yl)-ethyl]-coumalylamide], the half-maximal inhibitory concentration (IC50) on 5-HT2B receptor (read-out: 5-HT2B IC50) came to 3 µM; on 5-HT7 receptor (read-out: 5-HT7 IC50), 0.664 µM; on 5-HT1B receptor (read-out: 5-HT1B IC50) it was 1.64 µM; at MT-3 receptor (setting [1]) it was 0.98 µM. The Ki at 5-HT2B receptor (read-out: 5-HT2B KI) worked out at 1.91 µM; at 5-HT7 receptor (read-out: 5-HT7 KI), 0.381 µM; at 5-HT1B receptor (read-out: 5-HT1B KI) it was 1.55 µM; on MT-3 receptor (setting [2]), 0.96 µM. The “affinity to 5-HT7” value on 5-HT7 receptor is recorded as “moderate affinity”. Also, at 5-HT1B receptor, the “affinity to 5-HT1B” value is recorded as “moderate affinity”. Also, the “effect on hexobarbital-Na narcosis time” value in the assay on CD1 mice is on record as “significantly increased the hexobarbital-Na narcosis time”. In the assay on CD1 mice, the “Changes (%) vs. Vehicle (sleep time)” value was “+194%”. The “Mean Sleep Time-Treatment (min) ± SE” value in the assay on CD1 mice is reported as 23.58 ± 3.19 min. Besides, the “2-[3H]-deoxy-d-glucose uptake (cpm)” value in the assay on 3T3-L1 adipocytes was determined as 1494 cpm. Also, the inhibition at 10 µM at MT-3 receptor (10 μM, 0.1 nM 125I-melatonin) came to 95%.

The values above are taken from patent US9101613B2, “Methods for treating neurological disease” (Neurim Pharmaceuticals (1991) Ltd., priority 2006, dated 2015).
